Values of other authors, collected in patent US20050074494A1, “Itraconazole immediate release formulation” (priority 2003, published 2005).

solubility in alcohols (alcohols): very slightly soluble
solubility in dichloromethane (dichloromethane): freely soluble
solubility in water (water): insoluble
Structure (SMILES): CCC(C)n1ncn(-c2ccc(N3CCN(c4ccc(OCC5COC(Cn6cncn6)(c6ccc(Cl)cc6Cl)O5)cc4)CC3)cc2)c1=O (stereo not drawn) [Itraconazole, 4-[4-[4-[4-[[2-(2,4-dichlorophenyl)-2-(1H-1,2,4-triazol-1-ylmethyl)-1,3-dioxolan-4-yl]methoxy]phenyl]-1-piperazinyl]phenyl]-2,4-dihydro-2-(1-methylpropyl)-3H-1,2,4-triazol-3-one]
